According to patent US20160095923A1, “ORAL COMPOSITION COMPRISNG (+)-CATECHIN” (VALORE, priority 2013, published 2016):

How the values were obtained:
[1] = Bioavailability after oral administration or intravenous injection in Wistar rats (free/total polyphenol in plasma, LC-MS/MS)
Procedure: (§1) The experimental results described below were obtained on the basis of a study carried out in healthy human beings and in healthy Wistar rats weighing approximately 250 grams.
An acclimation period was observed before beginning the experiments.
The rats received an administration per os of a volume of 5 ml of a solution of active product.
(§2) With regard to taking the blood samples from the rats and from the human beings, the blood was collected in tubes internally coated with EDTA and was then centrifuged at 3000 rpm (revolutions per minute) at ambient temperature for 45 min, and then for 15 min at a temperature of 4° C. The plasma was then collected and stored at −70° C. before analysis.
(§3) The analytical technique (LC-MS/MS for Liquid Chromatography coupled to tandem Mass Spectrometry) for measuring the active substance in the blood was based on the method described by Mata-Bilbao et al., published in 2007 in the Journal of Agricultural and Food Chemistry, volume 55, page 8857.
(§4) The free (+)-catechin was extracted from the plasma with a solution of phosphoric acid, EDTA and ascorbic acid and was then purified by SPE (solid phase extraction); in particular, it is an Oasis™ HLB extraction which is analyzed by LC-MS/MS. The quantification was carried out according to a standard calibration procedure with (+/−)-catechin-2,3,4-^13C3 as internal standard (SI).
The procedure is identical with regard to the extraction and the quantification of free quercetin or ECGC in the blood.
With regard to the extraction and quantification of the total (+)-catechin, the procedure is the same as that applied to the free (+)-catechin, with the exception of the fact that an additional step prior to the purification by SPE is carried out.
Each of the mixtures is then solubilized in water.
Each of the mixtures is solubilized in water.

[2] = system: cancer patients (lymphoplasmocytic lymphoma; clear cell renal carcinoma); test: Treatment of patients suffering from cancer with 500 mg [C:Lys:HCl] complex salt tablet per day; assay type: in vivo, human; conditions: for IgM level in the blood: lymphoplasmocytic lymphoma, 500 mg/day
Procedure: In the first patient a lymphoplasmocytic lymphoma (of Waldenström macroglobulinemia type) was detected during a post-operative blood test on day D0. The diagnosis is based on the electrophoretic detection of a monoclonal peak of immunoglobulins (IgM). This diagnosis was reconfirmed and the peak was assayed during a second analysis using the same detection by electrophoresis.
These immunoglobulins are found at a high concentration in the blood and in the urine. They therefore constitute real tumor markers. The assaying thereof gives an account of the number of sick cells and the extent of the disease and, consequently, makes it possible to monitor its progression under treatment.
Successive blood tests gave the following data for the IgM assay (in mg per 100 ml of plasma):
In the second patient, a left subclavicular cervical adenopathy was first of all detected on day D0. Next, 2 weeks later, a left renal adenocarcinoma was detected for this patient, which was followed by a nephrectomy of the left kidney 3 days after the detection of the adenocarcinoma in this kidney.
Thereafter, on day D0+3 months, a left cervical lymph node dissection is performed on the patient. This procedure was followed by a series of 15 radiotherapy sessions.
Starting from day D0+15 months (that is to say on day DT), the patient was orally administered a tablet of 500 mg of (+)-catechin hydrochlorolysinate per day.

[3] = Bioavailability after oral administration in human beings (free monomeric (+)-catechin in plasma, LC-MS/MS); conditions: in vivo, po
Procedure: as §1, §2, §3, §4
This complex salt is administered to a group A of 5 healthy volunteers.
This ct parameter makes it possible to calculate, from the data of table 1, the bioavailability of the (+)-catechin expressed in ng h/ml.

rat skin = test: Total incorporation and incorporation into collagen of 3H-proline in the skin; assay type: in vivo, Wistar rats; conditions: 100 mg/kg by gavage for 5 days; for level of incorporation into collagen (IC) of 3H-hydroxyproline in rat skin / level of total incorporation (IT) of 3H-hydroxyproline in rat skin: treated subgroup
Procedure: To do this, a study was carried out in vivo on a batch of 24 female Wistar rats weighing from 95 to 115 g, divided into two groups C and D, each of 12 rats. For each group, the radioactive 3H-hydroxyproline, the specific activity of which is 13.6 Ci/10^−3 mol, was administered to all the animals by intraperitoneal injection of proline-L-(5-3H) at a dose, relative to the weight of the individuals, of 1 mCi/kg, which represents an activity in terms of radioactive 3H-proline of 100 μCi/individual.
6 rats of each group received a treatment based on monomeric (+)-catechin by gavage in a proportion of 100 mg/kg for 5 days before sacrifice. […] The group C received monomeric (+)-catechin hydrochlorolysinate, while the group D received monomeric (+)-catechin ascorbolysinate.
In table 8, the level of incorporation is measured by the number of disintegrations of the radioactive 3H-hydroxyproline per minute (dpm) per mg of dry weight. The higher this number, the higher the concentration of 3H-hydroxyproline.
In this comparative example, a group E of 12 Wistar rats weighing from 95 to 115 g, in which radioactive 3H-hydroxyproline, the specific activity of which is 13.6 Ci/10^−3 mol, was administered to all the individuals by intraperitoneal injection of proline-L-(5-3H) at a dose, relative to the weight of the individuals, of 1 mCi/kg, which represents an activity in terms of radioactive 3H-proline of 100 ρCi/individual.
6 rats of each group received a treatment based on pure monomeric (+)-catechin by gavage in a proportion of 100 mg/kg for 5 days before sacrifice.
In table 9, the level of incorporation is measured by the number of disintegrations of the radioactive 3H-hydroxyproline per minute (dpm) per mg of dry weight. The higher this number, the higher the concentration of 3H-hydroxyproline.

[4] = system: gastric ulcers in Mastomys; test: Incidence of gastric ulcers and histamine level in the gastric mucosa in ovalbumin-sensitized Mastomys; assay type: in vivo; conditions: for histamine level (HL) in the gastric mucosa / number of animals exhibiting a gastric ulcer (NU): n = 12
Procedure: Mastomys in fact has a special system of cells which store histamine in the gastric mucosa; these cells can give rise to carcinoid tumors.
In this example, a sample of n=48 Mastomys are sensitized a first time by intraperitoneal injection of 3 μg of ovalbumin dissolved in 0.2 ml of saline solution containing 1 mg of aluminum hydroxide the ovalbumin which brings about anti-immunoglobulin E(IgE) and G(IgG) antibodies. After 7 days, a second injection of 1 mg of ovalbumin in 0.01 ml of saline solution is given in the gastric mucosa at the level of the corpus of the anesthetized animals, which causes an ulcerated lesion at the actual site of the injection.
The 48 rats are divided up into three groups: one of 24 and two of 12 individuals. The first group of 24 individuals (G1) received a placebo (concentrated NaCl solution at 0.15 M).
The histamine level is measured for the G1, G2 and G3 groups on the basis of a sample of n=12 individuals.

[5] = free catechin, per os, dose equivalent to 100 mg/kg catechin, 5 rats
[6] = oral administration versus placebo

## Cl.Cl.Cl.Cl.Cl.NCCCCC(N)C(=O)O.NCCCCC(N)C(=O)O.NCCCCC(N)C(=O)O.NCCCCC(N)C(=O)O.NCCCCC(N)C(=O)O.Oc1cc(O)c2c(c1)O[C@H](c1ccc(O)c(O)c1)[C@@H](O)C2.Oc1cc(O)c2c(c1)O[C@H](c1ccc(O)c(O)c1)[C@@H](O)C2 [1:2.5:2.5]
[1]; rat, in vivo, 25 mg/kg
  ct, reported value on the curve in FIG. 5: 105 k ng min/ml

## Cl.Cl.Cl.NCCCCC(N)C(=O)O.NCCCCC(N)C(=O)O.NCCCCC(N)C(=O)O.Oc1cc(O)c2c(c1)O[C@H](c1ccc(O)c(O)c1)[C@@H](O)C2 [1:3:3]
[1]; rat, in vivo, 25 mg/kg
  ct, calculated value: 38 k ng min/ml

## Cl.Cl.Cl.Cl.Cl.NCCCCC(N)C(=O)O.NCCCCC(N)C(=O)O.NCCCCC(N)C(=O)O.NCCCCC(N)C(=O)O.NCCCCC(N)C(=O)O.Oc1cc(O)c2c(c1)O[C@H](c1ccc(O)c(O)c1)[C@@H](O)C2 [1:5:5]
[1]; rat, in vivo, 25 mg/kg
  ct, calculated value: 26 k ng min/ml

## Cl.Cl.Cl.NCCCCC(N)C(=O)O.NCCCCC(N)C(=O)O.NCCCCC(N)C(=O)O.Oc1cc(O)c2c(c1)O[C@H](c1ccc(O)c(O)c1)[C@@H](O)C2.Oc1cc(O)c2c(c1)O[C@H](c1ccc(O)c(O)c1)[C@@H](O)C2 [C:Lys:HCl/1:1.5:1.5]
[1]; rat, in vivo, 25 mg/kg
  ct, reported value on the curve in FIG. 5: 142 k ng min/ml

## O=c1c(O)c(-c2ccc(O)c(O)c2)oc2cc(O)cc(O)c12 [QP, quercetin, reference compound]
[1]; Wistar, rat, in vivo, 25 mg/kg
  Δct^q (difference of ct to QP): 0%

## N=C(N)NCCCC(N)C(=O)O.Oc1cc(O)c2c(c1)O[C@H](c1ccc(O)c(O)c1)[C@@H](O)C2 [[C:Arg/1:1], Complex of Monomeric (+)-Catechin and of Arginine in a Molar Equivalence Ratio of 1:1]
[1]; free catechin, per os, dose equivalent to 100 mg/kg catechin
  Δct (difference of ct to CP): +21%
[1]; [5]
  T (max): 1 h

## NCCCCC(N)C(=O)O.Oc1cc(O)c2c(c1)O[C@H](c1ccc(O)c(O)c1)[C@@H](O)C2 [[C:Lys/1:1], Complex of Monomeric (+)-Catechin and of Lysine in a Molar Equivalence Ratio of 1:1]
[1]; [5]
  T (max): 1 h

## NCCCCC(N)C(=O)O.NCCCCC(N)C(=O)O.Oc1cc(O)c2c(c1)O[C@H](c1ccc(O)c(O)c1)[C@@H](O)C2 [[C:Lys/1:2], Complex of Monomeric (+)-Catechin and of Lysine in a Molar Equivalence Ratio of 1:2]
[1]; [5]
  T (max): 2 h
[1]; free catechin, per os, equivalent to 25 mg/kg (comparative example 4)
  Δct (difference of ct to CP): +17%
[1]; free catechin, per os, equivalent to 25 mg/kg, 3 rats (comparative example 4)
  T (max): 1 h
[1]; total (+)-catechin, per os, equivalent to 25 mg/kg
  Δct (difference of ct to CP): +24%
[1]; total (+)-catechin, per os, equivalent to 25 mg/kg, 3 rats
  T (max): 1 h

## Cl.Cl.NCCCCC(N)C(=O)O.NCCCCC(N)C(=O)O.Oc1cc(O)c2c(c1)O[C@H](c1ccc(O)c(O)c1)[C@@H](O)C2 [[C:Lys:HCl/1:2:2]]
[1]; rat, in vivo, iv, 25 mg/kg
  total plasma concentration (ct) of free monomeric (+)-catechin: 87 970 ng min/ml
  total plasma concentration (ct) of total monomeric (+)-catechin: 277 040 ng min/ml
[1]; rat, in vivo, po, 25 mg/kg
  total plasma concentration (ct) of total monomeric (+)-catechin: 479 585 ng min/ml

## Cl.Cl.NCCCCC(N)C(=O)O.NCCCCC(N)C(=O)O.O=c1c(O)c(-c2ccc(O)c(O)c2)oc2cc(O)cc(O)c12 [[Q:Lys:HCl/1:2:2], reference compound]
[1]; rat, in vivo, 25 mg/kg
  Δct^q (difference of ct to QP): +18%

## Cl.NCCCCC(N)C(=O)O.Oc1cc(O)c2c(c1)O[C@H](c1ccc(O)c(O)c1)[C@@H](O)C2 [monomeric (+)-catechin hydrochlorolysinate]
[2]; first patient, DT + 4 months
  IgM level in the blood: 2417 mg/100 ml
[2]; first patient, DT + 9 months
  IgM level in the blood: 2410 mg/100 ml
[2]; first patient, DT + 15 months
  IgM level in the blood: 2412 mg/100 ml
[2]; first patient, taken for a year and a half
  clinical course of IgM level under treatment: stabilization below the maximum detected on day DT
[2]; second patient, clear cell renal carcinoma, 500 mg/day from DT
  clinical outcome: stabilized the patient's condition
[3]
  T (max): 0.5 h
  increase in c (max) compared with pure monomeric (+)-catechin: +103%
  increase in speed of passage into blood, T (max), compared with pure monomeric (+)-catechin: +166%
Rat skin
  increase in the level of incorporation versus control: +15%
  level of incorporation into collagen (IC) of 3H-hydroxyproline in rat skin: 1343 ± 48 dpm/mg
  level of total incorporation (IT) of 3H-hydroxyproline in rat skin: 6248 ± 124 dpm/mg
[4]; G2, per os 2×300 mg a day
  histamine level (HL) in the gastric mucosa: 37.91 ± 3.73 10^−6 mg/kg of protein
  number of animals exhibiting a gastric ulcer (NU): 5
[4]; G3, intraperitoneally 100 mg
  histamine level (HL) in the gastric mucosa: 34.98 ± 3.52 10^−6 mg/kg of protein
  number of animals exhibiting a gastric ulcer (NU): 6
[4]; [6]
  decrease in the histamine level in the gastric mucosa: −18%
  decrease in the number of animals exhibiting a gastric ulcer: −72%
[1]; rat, in vivo, 25 mg/kg
  ct, reported value on the curve in FIG. 5: 127 k ng min/ml

## O=C(O[C@@H]1Cc2c(O)cc(O)cc2O[C@@H]1c1cc(O)c(O)c(O)c1)c1cc(O)c(O)c(O)c1 [pure EGCG, epigallocatechin gallate, reference compound]
[1]; free EGCG, per os, equivalent to 25 mg/kg polyphenol
  plasma levels measured (below reliable limits of detection): below 250 ng/ml

## monomeric (+)-catechin ascorbolysinate
Rat skin
  increase in the level of incorporation versus control: +14%
  level of incorporation into collagen (IC) of 3H-hydroxyproline in rat skin: 1117 ± 49 dpm/mg
  level of total incorporation (IT) of 3H-hydroxyproline in rat skin: 5112 ± 259 dpm/mg
